The values below come from patent US10435414B2, “Tricyclic PI3K inhibitor compounds and methods of use” (Genentech, Inc., priority 2015, dated 2019).

Chain of PI3Kα (alpha) (P42336 whole entry): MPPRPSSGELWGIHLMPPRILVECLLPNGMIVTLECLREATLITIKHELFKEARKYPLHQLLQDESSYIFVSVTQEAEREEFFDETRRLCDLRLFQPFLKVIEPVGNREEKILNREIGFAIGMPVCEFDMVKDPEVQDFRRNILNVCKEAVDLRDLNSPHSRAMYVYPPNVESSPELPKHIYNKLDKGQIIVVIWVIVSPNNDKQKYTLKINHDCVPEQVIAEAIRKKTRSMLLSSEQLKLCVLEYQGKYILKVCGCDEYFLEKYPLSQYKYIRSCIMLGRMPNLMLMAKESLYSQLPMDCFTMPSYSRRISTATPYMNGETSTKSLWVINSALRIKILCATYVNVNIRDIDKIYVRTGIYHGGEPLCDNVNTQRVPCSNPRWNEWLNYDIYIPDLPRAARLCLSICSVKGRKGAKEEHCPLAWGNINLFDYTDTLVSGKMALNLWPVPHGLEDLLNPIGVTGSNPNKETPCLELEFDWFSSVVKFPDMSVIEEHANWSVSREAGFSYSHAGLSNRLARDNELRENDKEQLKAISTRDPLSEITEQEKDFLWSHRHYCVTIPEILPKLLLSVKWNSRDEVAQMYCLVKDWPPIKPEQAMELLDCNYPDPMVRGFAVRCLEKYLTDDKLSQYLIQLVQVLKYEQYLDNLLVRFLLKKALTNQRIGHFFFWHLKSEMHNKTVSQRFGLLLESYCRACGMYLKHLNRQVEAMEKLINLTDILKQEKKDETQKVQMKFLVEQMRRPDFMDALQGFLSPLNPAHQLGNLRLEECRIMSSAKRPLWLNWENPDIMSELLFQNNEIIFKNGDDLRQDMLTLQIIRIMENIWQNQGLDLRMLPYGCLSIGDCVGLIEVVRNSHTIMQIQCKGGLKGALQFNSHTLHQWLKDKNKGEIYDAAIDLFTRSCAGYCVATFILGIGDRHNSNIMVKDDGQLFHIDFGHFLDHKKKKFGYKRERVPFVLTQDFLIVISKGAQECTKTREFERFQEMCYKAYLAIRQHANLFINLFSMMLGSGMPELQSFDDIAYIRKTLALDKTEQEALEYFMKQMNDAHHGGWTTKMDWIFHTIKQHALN
Chain of PI3Kα (alpha) (P27986 whole entry partner): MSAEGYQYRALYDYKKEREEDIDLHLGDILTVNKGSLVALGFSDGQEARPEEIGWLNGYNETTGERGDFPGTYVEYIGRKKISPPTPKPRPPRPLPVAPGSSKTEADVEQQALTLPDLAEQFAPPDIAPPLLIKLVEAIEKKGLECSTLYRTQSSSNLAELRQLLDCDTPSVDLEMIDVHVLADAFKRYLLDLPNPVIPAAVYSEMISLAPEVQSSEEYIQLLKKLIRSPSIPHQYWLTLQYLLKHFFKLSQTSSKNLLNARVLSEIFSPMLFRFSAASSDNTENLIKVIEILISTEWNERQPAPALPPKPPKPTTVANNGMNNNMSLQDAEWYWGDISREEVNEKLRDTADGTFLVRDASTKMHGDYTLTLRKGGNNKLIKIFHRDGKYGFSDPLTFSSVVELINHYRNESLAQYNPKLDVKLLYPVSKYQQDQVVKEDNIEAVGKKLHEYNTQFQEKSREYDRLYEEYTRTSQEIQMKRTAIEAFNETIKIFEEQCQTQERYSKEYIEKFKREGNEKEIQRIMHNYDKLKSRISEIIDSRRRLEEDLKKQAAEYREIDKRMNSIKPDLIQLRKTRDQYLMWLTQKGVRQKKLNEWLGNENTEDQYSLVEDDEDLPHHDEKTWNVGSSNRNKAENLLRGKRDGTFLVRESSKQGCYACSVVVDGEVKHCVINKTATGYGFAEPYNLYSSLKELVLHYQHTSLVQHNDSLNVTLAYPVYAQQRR

The test concerns the target PI3Kα (alpha) (Homo sapiens (Human), UniProt P42336). In words: p110α (alpha) PI3K binding assay (ADP-Glo lipid kinase reaction, Ki by Morrison equation). Type of test: biochemical. To be noted: PI3K alpha 0.2 nM, ATP 40 μM, PIP2:3PS 50 μM, 120 min, room temperature; read-out: PI3Kα-(alpha) ATP (Ki) micromolar. As for the experimental part:
PI3K Binding assays are intended for determining the biochemical potency of small molecule PI3K inhibitors. The PI3K lipid kinase reaction is performed in the presence of PIP2:3PS lipid substrate (Promega #V1792) and ATP. Following the termination if the kinase reaction, turnover of ATP to ADP by the phosphorylation of the lipid substrate is detected using the Promega ADP-Glo™ (Promega #V1792) assay. Reactions are carried out using the following conditions:
After 120 minutes of reaction time, the kinase reaction is terminated. Any ATP remaining after the reaction is depleted, leaving only ADP. Then the Kinase Detection Reagent is added to convert ADP to ATP, which is used in a coupled luciferin/luciferase reaction. The luminescent output is measured and is correlated with kinase activity.
All reactions are carried out at room temperature. […] The reaction is started by the addition of 2 μl ATP/MgCl2. The kinase reaction buffer contains 50 mM HEPES, 50 mM NaCl, 3 mM MgCl2, 0.01% BSA, 1% DMSO, and enzyme and substrate concentrations as indicated in the above table. The reaction is stopped by the addition of 10 μL ADP-Glo reagent. Plates are read in a Perkin Elmer Envision system using luminescence mode. 10 point dose response curves are generated for each test compound. Ki values for each compound are determined using the Morrison Equation.
A general note: ADP-Glo turns the ADP formed in a reaction into a luminescent signal.
For `NC(=O)[C@H](Oc1cc2c3c(c1)nc(-c1ccc4oc(N)nc4c1)n3CCCCO2)C1CC1` (single isomer, unassigned) [Example 283], the Ki amounted to 0.104 nM.

Consider `NC(=O)[C@@H](Oc1cc2c3c(c1)nc(-c1ccc4oc(N)nc4c1)n3CCCCO2)C1CC1` (single isomer, unassigned) [Example 284], for which the Ki was less than 0.02 nM.

As for `NC(=O)[C@H](Oc1cc2c3c(c1)nc(-c1cc(F)c4oc(N)nc4c1)n3CCCCO2)C1CC1` (single isomer, unassigned) [Example 288], the inhibition constant (Ki) was determined as 0.1 nM.

Consider `NC(=O)[C@@H](Oc1cc2c3c(c1)nc(-c1cc(F)c4oc(N)nc4c1)n3CCCCO2)C1CC1` (single isomer, unassigned) [Example 289], for which the inhibition constant (Ki) is less than 0.02 nM.

In general, Ki refers to the dissociation constant of the complex between target and ligand, obtained from inhibition or displacement.
